# Paper PMC12598851, “Exploiting Avidity Effects for the Discovery of Low Affinity Protein-Binding Fragments” (Journal of Medicinal Chemistry, 2025)
# pKd: −log10 of the molar value.
# What was measured:
# [1] = target: T1, SA-647 (Streptomyces avidinii, UniProt P22629); assay: Dose-dependent binding of SA-647 to bead-displayed ligands by FACS (MFI); details: SA-647 0.1 to 1000 nM
# T1 construct: purchased ThermoFisher S3235
# Method: We next asked if the bead binding assay could distinguish complexes with different affinities for SA. 10 μm TentaGel beads displaying compound 2, compound 3, the oxazole analogue of compound 2 (Figure S4), or the SA-binding macrocycle 1 shown in Figure a were exposed to different concentrations of SA-647 ranging from 0.1 to 1000 nM. After washing, the intensity of fluorescence retained on the beads was measured using a flow cytometer, and the results were plotted as the mean fluorescence intensity (MFI) on the beads vs the protein concentration. […] Macrocycle 1, which binds SA with a K D of about 600 nM in solution (more than 1000 times more tightly than compound 2), binds SA-647 on resin at far lower concentrations than does compound 2.
# [2] = target: T2, glutathione S-transferase (GST) (Schistosoma japonicum, UniProt P08515); assay: Bead pull-down of compound 2 beads with GST as off-target control; type: binding; details: GST 1 μM, stained with labeled antibody
# T2 construct: His6 (C); made in house; host or cells: E. coli BL21 (DE3) codon plus RP
# [3] = target: T3, Streptavidin (SA) (Streptomyces avidinii, UniProt P22629); assay: SPR, soluble compound binding to immobilized streptavidin; details: soluble mini-PEG attached compound, immobilized SA; read-out: KD (SPR)
# T3 construct: purchased
# Method: The SPR binding affinity testing was conducted using the BIAcore 1K system (Cytiva) with BIAcore Insight Control Software. Streptavidin (50 μg/mL in 10 mM pH 5.0 NaOAc) was immobilized on a CM5 sensor chip (Cytiva) via amide coupling, using HBS-EP+ (10 mM HEPES, 150 mM NaCl, 3 mM EDTA, and 0.05% v/v Surfactant P20) as the immobilization buffer. Approximately 1000 RU of immobilization was achieved. Testing compounds were evaluated using the multiple-cycle kinetic/affinity method in PBS-P+ running buffer (20 mM phosphate buffer, 2.7 mM KCl, 137 mM NaCl, and 0.05% Surfactant P20), with a 200 s association time, 200 s dissociation time, and a flow rate of 45 μL/min. Binding affinities for the testing compounds were determined by fitting the sensor grams to both the 1:1 binding kinetics and steady-state affinity models provided in the BIAcore Insight Evaluation Software.
# [4] = target: T4, tetrameric streptavidin (SA-647) (Streptomyces avidinii, UniProt P22629); assay: Bead pull-down: SA-647 retained by compound-displaying TentaGel beads, plate reader; type: binding; details: SA-647 50 nM, about 14,000-fold below the intrinsic KD
# T4 construct: purchased ThermoFisher S3235
# [5] = target: T1, SA-647; assay: Pooled bead library screen against SA-647 by FACS with LC-MS hit identification; type: binding; details: about 50-plex pooled beads, SA-647 500 nM, IP+-modified derivatives
# Text: While the one compound per well screening format employed for the Figures and experiments works well, it will limit throughput for the analysis of much larger fragment libraries in the future. […] A photocleavable linker was placed between the fragment and the bead (Figure a). Beads displaying compounds 2, 3, and the oxazole analog of compound 2 were also constructed with the same architecture. Beads displaying all of these compounds were then mixed together in a single Mobicol tube (approximately 25,000 of each bead type).
# The resin was incubated with SA-647 (500 nM, 300 μL) for 1 h at room temperature with gentle rotation.
# Prior to releasing the compounds from the resin for analysis, we “clicked” a brominated imidazopyridinium unit (IP^+) to the alkyne unit in the linker of these beads via copper-catalyzed azide–alkyne cycloaddition (Figure a,c insert). This was done for three reasons. The first was to add a chromophore to molecules so that, after release from the beads, they could be detected sensitively using a UV detector on the LC trace. […]
# After attachment of the IP^+ tag, the beads were washed with a 1:1 mixture of DMF and DCM and irradiated at 365 nm (4.5 × 10^3 μJ cm^–2) for 1 h in a 3:1 DCM/MeOH mixture to release the ligands from the beads. After evaporation of solvents, the eluate was redissolved in water and analyzed by LC-MS. […]
# T1 sequence (P22629 37-163 limits assumed): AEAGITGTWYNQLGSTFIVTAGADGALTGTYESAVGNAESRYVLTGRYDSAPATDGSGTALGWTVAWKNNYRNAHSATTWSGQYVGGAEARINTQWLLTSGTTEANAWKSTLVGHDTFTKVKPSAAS
# T4 sequence (P22629 37-163 limits assumed): as above
# T2 sequence (P08515 whole entry): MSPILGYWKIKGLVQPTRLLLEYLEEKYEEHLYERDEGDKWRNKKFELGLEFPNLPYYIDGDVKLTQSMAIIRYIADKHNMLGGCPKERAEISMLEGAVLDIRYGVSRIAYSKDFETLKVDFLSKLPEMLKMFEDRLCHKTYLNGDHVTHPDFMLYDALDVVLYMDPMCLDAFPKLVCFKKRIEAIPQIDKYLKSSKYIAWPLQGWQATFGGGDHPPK
# T3 sequence (P22629 25-183, species assumed): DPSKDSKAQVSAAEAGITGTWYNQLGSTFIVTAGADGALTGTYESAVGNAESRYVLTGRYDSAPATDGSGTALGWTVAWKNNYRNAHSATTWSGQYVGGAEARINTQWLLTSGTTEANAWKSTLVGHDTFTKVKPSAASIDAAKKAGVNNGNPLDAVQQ
compound,measurement,setting,value
CC(=O)N(Cc1cccnc1)Cc1nc(C(=O)N(C)CC(=O)NCCOCCOCC(=O)NCC(N)=O)cs1 [Compound 2],dose-dependent binding of SA-647 (MFI by flow cytometer),[1],dose-dependent binding
same,binding of GST to bead-displayed compound,[2],No detectable signal
same,pKd,[3],3.15
same,binding of SA-647 to bead-displayed compound at low protein concentration,[4],above background binding was readily detectable
same,recovery in sorted hit pool (LC-MS peak),[5],major peak
